The test system of one series is SARS-CoV-2 infection. The arrangement: method as in Ansems et al. [2021]. Particulars: hospitalized patients with SARS-CoV-2 infection; ref Ansems et al. [2021]; cited from earlier work.
Series [1] deals with SARS-CoV-2-infected Vero E6 cells. The arrangement: method as in Kanjanasirirat et al. [2020]. Particulars: ref Kanjanasirirat et al. [2020]; cited from earlier work.
The conditions of series [2]: dog, in vivo, iv, 1 mg/kg.
The conditions of series [3]: rat, in vivo, po; cited from earlier work.
For series [4] the following is noted: predicted; ref PubChem [2004]; cited from earlier work.
The format of series [5] is physicochemical. Particulars: 12 h. As for the experimental part: The LCMS system was operated using a LCMS-8060 (Shimadzu, Kyoto, Japan) equipped with a C18 reversed phase column, Synergi 4 µm Fusion-RP 80 Å 50 × 2 mm (Phenomenex, Torrance, CA). The column oven was maintained at 40 °C and operated using a mobile phase consisting of 0.2% formic acid in water (solvent A) and 100% methanol (solvent B), with a gradient system (0–0.5 min 10% B, 0.5–1.5 min increase to 90% B, 1.5–2.5 min 90% B, 2.5–3.5 min decrease to 10% B, 3.5–4.5 min 10% B), at a flow rate of 0.5 mL/min, with a 10 μL injection volume. The mass spectrometer was a triple quadrupole with negative mode electrospray ionization (ESI). […] All the operations, acquisition and analysis of data were controlled by LabSolution software version 5.86 (Shimadzu, Japan). The LCMS method was validated for accuracy, precision, recovery and stability according to the guidance on bioanalytical method validation recommended by the FDA (USFDA [2018]).

The nature of the next series: in vivo. To be noted: male, beagle, dog.
The test system of a further series is COVID-19. The arrangement: method as in Jayk Bernal et al. [2021]. Particulars: ref Jayk Bernal et al. [2021]; cited from earlier work.
The test system of series [6] is SARS-CoV-2-infected Calu-3 cells. Further details: method as in Sa-ngiamsuntorn et al. [2021]. Particulars: ref Sa-ngiamsuntorn et al. [2021]; cited from earlier work.

Read-outs that look alike come from different tables or passages of the source.

Results on four compounds are retold here after publication PMC10064817 (Pharmaceutical Biology, 2023).

Take `CCC(CC)COC(=O)[C@H](C)N[P@](=O)(OC[C@H]1O[C@@](C#N)(c2ccc3c(N)ncnn23)[C@H](O)[C@@H]1O)Oc1ccccc1` [remdesivir, reference compound]: the “Effect on all-cause mortality at up to day 28” value with SARS-CoV-2 infection is on record as “little or no effect”. Moreover, in [1], the IC50 was 2.71 µM.
For the compound `COc1cc(O)c(C(=O)[C@@H]2[C@H](CC=C(C)C)C(C)=CC[C@H]2c2ccccc2)c(O)c1` [Panduratin A, panduratin A], in series [2], the ALT was found to be 44 ± 7 U/L, the AST is 24 ± 6 U/L, the Alkaline phosphatase is given as 35 ± 4 U/L and the Blood urea nitrogen is reported as 11.9 ± 1.6 mg/dL. For the same compound, in series [2], the Creatinine is 0.6 ± 0.1 mg/dL, the Haemoglobin turned out to be 14.2 ± 1.3 g/dL, the Physical appearance entry is listed as “Normal” and the Platelet is 241 ± 44 x 10^3/µL. For the same compound, in series [2], the Red blood cell is 6.03 ± 0.66 x 10^6/µL and the White blood cell was 7.83 ± 1.09 x 10^3/µL. Also, the Tissue distribution result in series [3] was “distribution of panduratin A to various tissues, including skin, lung, heart, gum, liver, spleen, kidney and brain”. Further, in series [4], the Hydrogen bond acceptors entry was “four” and the Hydrogen bond donors entry is reported as “two”. In [5] (10 µg/L), the “Stability, Accuracy (%RE)” value came out at 9.75 %RE and the “Stability, mean concentration found” value worked out at 10.98 µg/L. For the same compound, in [5] (150 µg/L), the “Stability, Accuracy (%RE)” value stood at 4.48 %RE and the “Stability, mean concentration found” value was 156.72 µg/L. Moreover, in [5] (600 µg/L), the “Stability, Accuracy (%RE)” value was found to be 4.76 %RE and the “Stability, mean concentration found” value worked out at 628.57 µg/L. Moreover, the IC50 in series [1] is 0.81 µM. Besides, the half-life in “in vivo” was 10 to 15 h. Besides, in “in vivo” (iv, 1 mg/kg), the AUC(0-inf) worked out at 209 µg·h/mL, the AUC(0-t) was 181 µg·h/mL, the MRT was 23.9 ± 3.27 h and the Vd was 0.1 ± 0.01 L/kg. Further, in “in vivo” (iv, 1 mg/kg), the clearance was 0.167 mL/min/kg, the concentration at 72 h was in the range of 0.1 to 0.2 µg/mL and the half-life is 15.2 h. For the same compound, in the series “in vivo” (iv, 1 mg/kg, Cmax), the peak concentration (Cmax) is ~100 µg/mL.
Consider `CC(C)C(=O)OC[C@H]1O[C@@H](n2ccc(NO)nc2=O)[C@H](O)[C@@H]1O` [molnupiravir], for which the “Reduced rate of hospitalization or death compared to placebo” value with COVID-19 was 30%.
For the compound `C=C1CC[C@@H]2[C@](C)(CO)[C@H](O)CC[C@@]2(C)[C@@H]1C/C=C1/C(=O)OC[C@H]1O` [andrographolide], the IC50 in series [6] was 0.034 µM.
